From the supplement of paper PMC10307832

Columns and labels:
Experiment in all cases: relative viability (nuclei count vs DMSO), 5 days (fraction); higher = more cells survive
EPLC-272H = system: EPLC-272H
Procedure, shortened: (§1)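 Lung cancer cell lines, seeded in 1536-well plates, were treated the following day by pin tool with a single drug or with five library-drug doses (not always all listed) in √10 steps on top of a fixed anchor-drug dose. Cells were fixed and nuclei stained in one step after 5 days, and nuclei were counted. Relative viability is the nuclei count for treated wells divided by that for vehicle wells, reported as medians of duplicate plates.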

NCI-H2023 = system: NCI-H2023
Procedure, shortened: as §1

SK-LU-1 = system: SK-LU-1
Procedure, shortened: as §1

NCI-H2085 = system: NCI-H2085
Procedure, shortened: as §1

PC-14 = system: PC-14
Procedure, shortened: as §1

H3255 = system: H3255
Procedure, shortened: as §1

NCI-H647 = system: NCI-H647
Procedure, shortened: as §1

NCI-H1734 = system: NCI-H1734
Procedure, shortened: as §1

SW 1573 = system: SW 1573
Procedure, shortened: as §1

NCI-H322M = system: NCI-H322M
Procedure, shortened: as §1

NCI-H661 = system: NCI-H661
Procedure, shortened: as §1

NCI-H1993 = system: NCI-H1993
Procedure, shortened: as §1

NCI-H2126 = system: NCI-H2126
Procedure, shortened: as §1

NCI-H2347 = system: NCI-H2347
Procedure, shortened: as §1

LCLC-97TM1 = system: LCLC-97TM1
Procedure, shortened: as §1

NCI-H727 = system: NCI-H727
Procedure, shortened: as §1

EMC-BAC-2 = system: EMC-BAC-2
Procedure, shortened: as §1

NCI-H1915 = system: NCI-H1915
Procedure, shortened: as §1

LXF-289 = system: LXF-289
Procedure, shortened: as §1

NCI-H2009 = system: NCI-H2009
Procedure, shortened: as §1

HOP-62 = system: HOP-62
Procedure, shortened: as §1

In the case of COc1nc(C)cnc1NS(=O)(=O)c1cccnc1-c1ccc(-c2nnco2)cc1 [Zibotentan] + CC(=O)Nc1cccc(-n2c(=O)n(C3CC3)c(=O)c3c(Nc4ccc(I)cc4F)n(C)c(=O)c(C)c32)c1 [Trametinib] (partner 0.02 µM), the relative viability (EPLC-272H; first compound 0.08 µM) is reported as 0.287, the relative viability (EPLC-272H; first compound 0.253 µM) is reported as 0.234 and the relative viability (EPLC-272H; first compound 0.8 µM) is reported as 0.31. The relative viability (EPLC-272H; first compound 2.53 µM) was 0.312, the relative viability (NCI-H2023; first compound 0.08 µM) was 0.631 and the relative viability (NCI-H2023; first compound 0.8 µM) was 0.614. It also gave a relative viability (NCI-H2023; first compound 2.53 µM) of 0.558, a relative viability (SK-LU-1; first compound 0.08 µM) of 0.503 and a relative viability (SK-LU-1; first compound 0.253 µM) of 0.472. The relative viability (SK-LU-1; first compound 0.8 µM) was 0.451, the relative viability (SK-LU-1; first compound 2.53 µM) was 0.458 and the relative viability (NCI-H2085; first compound 0.08 µM) was 0.533. For the same molecule, the relative viability (NCI-H2085; first compound 0.253 µM) was 0.448, the relative viability (NCI-H2085; first compound 0.8 µM) was 0.541 and the relative viability (NCI-H2085; first compound 2.53 µM) was 0.489. For the same molecule, the relative viability (PC-14; first compound 0.08 µM) was 0.833, the relative viability (PC-14; first compound 0.253 µM) was 0.752 and the relative viability (PC-14; first compound 0.8 µM) was 0.733. It also gave a relative viability (PC-14; first compound 2.53 µM) of 0.735, a relative viability (H3255; first compound 0.08 µM) of 0.659 and a relative viability (H3255; first compound 0.253 µM) of 0.607. For the same molecule, the relative viability (H3255; first compound 0.8 µM) was 0.667, the relative viability (H3255; first compound 2.53 µM) was 0.626 and the relative viability (NCI-H647; first compound 0.08 µM) was 0.452. The relative viability (NCI-H647; first compound 0.253 µM) was 0.42, the relative viability (NCI-H647; first compound 0.8 µM) was 0.431 and the relative viability (NCI-H647; first compound 2.53 µM) was 0.532. It also gave a relative viability (NCI-H1734; first compound 0.08 µM) of 0.721, a relative viability (NCI-H1734; first compound 0.253 µM) of 0.705 and a relative viability (NCI-H1734; first compound 0.8 µM) of 0.647. The relative viability (NCI-H1734; first compound 2.53 µM) was 0.733, the relative viability (SW 1573; first compound 0.08 µM) was 0.548 and the relative viability (SW 1573; first compound 0.8 µM) was 0.411. The relative viability (SW 1573; first compound 2.53 µM) was 0.729, the relative viability (NCI-H322M; first compound 0.08 µM) was 0.501 and the relative viability (NCI-H322M; first compound 0.253 µM) was 0.5. It also gave a relative viability (NCI-H322M; first compound 0.8 µM) of 0.519, a relative viability (NCI-H322M; first compound 2.53 µM) of 0.561 and a relative viability (NCI-H661; first compound 0.08 µM) of 0.574. The relative viability (NCI-H661; first compound 0.253 µM) was 0.495, the relative viability (NCI-H661; first compound 0.8 µM) was 0.589 and the relative viability (NCI-H661; first compound 2.53 µM) was 0.601. It also gave a relative viability (NCI-H1993; first compound 0.08 µM) of 0.591, a relative viability (NCI-H1993; first compound 0.253 µM) of 0.51 and a relative viability (NCI-H1993; first compound 0.8 µM) of 0.459. The relative viability (NCI-H1993; first compound 2.53 µM) was 0.545, the relative viability (NCI-H2126; first compound 0.08 µM) was 0.558 and the relative viability (NCI-H2126; first compound 0.253 µM) was 0.525. It also gave a relative viability (NCI-H2126; first compound 0.8 µM) of 0.557, a relative viability (NCI-H2126; first compound 2.53 µM) of 0.563 and a relative viability (NCI-H2347; first compound 0.08 µM) of 0.252. The relative viability (NCI-H2347; first compound 0.253 µM) was 0.272, the relative viability (NCI-H2347; first compound 0.8 µM) was 0.339 and the relative viability (NCI-H2347; first compound 2.53 µM) was 0.287. The relative viability (LCLC-97TM1; first compound 0.08 µM) was 0.217, the relative viability (LCLC-97TM1; first compound 0.253 µM) was 0.213 and the relative viability (LCLC-97TM1; first compound 0.8 µM) was 0.198. The relative viability (LCLC-97TM1; first compound 2.53 µM) was 0.2, the relative viability (NCI-H727; first compound 0.08 µM) was 0.371 and the relative viability (NCI-H727; first compound 0.253 µM) was 0.415. For the same molecule, the relative viability (NCI-H727; first compound 0.8 µM) was 0.441, the relative viability (NCI-H727; first compound 2.53 µM) was 0.439 and the relative viability (EMC-BAC-2; first compound 0.08 µM) was 0.952. For the same molecule, the relative viability (EMC-BAC-2; first compound 0.8 µM) was 0.994, the relative viability (EMC-BAC-2; first compound 2.53 µM) was 0.914 and the relative viability (NCI-H1915; first compound 0.08 µM) was 0.325. The relative viability (NCI-H1915; first compound 0.253 µM) was 0.313, the relative viability (NCI-H1915; first compound 0.8 µM) was 0.347 and the relative viability (NCI-H1915; first compound 2.53 µM) was 0.296. It also gave a relative viability (LXF-289; first compound 0.08 µM) of 0.61, a relative viability (LXF-289; first compound 0.253 µM) of 0.622 and a relative viability (LXF-289; first compound 0.8 µM) of 0.675. The relative viability (LXF-289; first compound 2.53 µM) was 0.675, the relative viability (NCI-H2009; first compound 0.08 µM) was 0.273 and the relative viability (NCI-H2009; first compound 0.253 µM) was 0.258. For the same molecule, the relative viability (NCI-H2009; first compound 0.8 µM) was 0.266, the relative viability (NCI-H2009; first compound 2.53 µM) was 0.278 and the relative viability (HOP-62; first compound 0.08 µM) was 0.429. For the same molecule, the relative viability (HOP-62; first compound 0.253 µM) was 0.367, the relative viability (HOP-62; first compound 0.8 µM) was 0.421 and the relative viability (HOP-62; first compound 2.53 µM) was 0.39.
